Source: article PMC12022980, “Rational Design of PROTAC Linkers Featuring Ferrocene as a Molecular Hinge to Enable Dynamic Conformational Changes” (Journal of the American Chemical Society, 2025)
Read-outs that look alike come from different tables or passages of the source.

Columns and labels:
[1] = Variable temperature NMR (vt-NMR) of amide protons in CDCl3; type: physicochemical; conditions: CDCl3, 298–328 K
Source text: With this premise, we performed NMR studies to quantify the HBD solvent exposure of the amide protons using the HBD Acidity NMR score (ANMR)[47] and variable temperature studies (vt-NMR).[48] To note, although vt-NMR has originally been developed and applied to the study of peptides,[49] it is, together with the ANMR value, a well-established method for studying the intramolecular hydrogen bonding (IMHB) patterns in systems such as PROTACs[10],[12],[18],[26] as well as in ferrocene structures.[29],[50]−[53] […]
Standard NMR experiments were performed at 298 K, while variable-temperature NMR experiments recorded spectra across a temperature range from 298 K to 328 K allowing a sufficient temperature equilibration time (10–15 min) before signal acquisition. All NOESY spectra for conformational analysis as well as the assignment spectra in methanol-d 4 were recorded on a 500 MHz Bruker Avance III equipped with a 5 mm QCI cryogenic probe. NOESY spectra were obtained from a sample at 1.25 mM in CDCl3 and 1.25 mM in methanol-d4, recorded at 298 K, using 16 transients, 1024 points in the direct dimension and 512 points in the indirect dimension, a relaxation delay of 1.5 s, and a mixing time of 700 ms. All other spectra used for signal assignment in CDCl3 were recorded on 500 MHz Bruker Avance NEO with a BBFO SmartProbe. […]

pVHL30 = biological target: T1, pVHL30 (Homo sapiens, UniProt P40337); assay: Western blot VHL degradation in HEK293 cells; type: cell-based
T1 construct: endogenous in cells; host or cells: HEK293 (ATCC)
T1 sequence (P40337 whole entry): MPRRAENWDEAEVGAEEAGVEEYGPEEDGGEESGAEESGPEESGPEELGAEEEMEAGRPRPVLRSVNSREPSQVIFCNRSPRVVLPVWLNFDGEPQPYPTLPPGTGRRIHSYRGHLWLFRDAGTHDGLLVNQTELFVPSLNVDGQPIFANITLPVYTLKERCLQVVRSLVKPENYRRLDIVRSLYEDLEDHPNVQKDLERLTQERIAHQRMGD
Procedure: To further elucidate the mode of action of FerroTAC AS2, we explored its dependency on ubiquitination and proteasome activity.
A) Representative immunoblots of VHL protein levels after treatment of
HEK293 cells. Cells were treated with 0.1% EtOH, 0.1 μM or 1 μM of the indicated compounds for 4 and 24 h.
Controls were included at 1 μM for 24 h. Mean values of two biologically independent experiments.
Representative time-course immunoblots of VHL protein levels after treatment of HEK293 cells treated with
Cells were treated with 0.1% EtOH and controls at 1 μM. Mean values of two biologically
independent experiments. Apparent half-life values (t 1/2) were estimated by fitting band intensity against time
using a single-phase exponential decay model. C) Representative immunoblots of VHL protein levels in
neddylation inhibitor MLN4924 (3 μM) and VHL inhibitor VH032 (50 μM). The amount of EtOH (0.1%) and
DMSO (0.5%) is fixed in all samples. Band quantification was performed using ImageJ software and reported
(in black and black) as relative amount as ratio of each protein band relative to the lane’s loading control
(tubulin). VHL/tubulin protein ratios were normalised to the average of the controls (100%).
HEK293 and HCT116 cell lines, purchased from ATCC, were cultured in Dulbecco’s modified Eagle’s medium (DMEM, Gibco) supplemented with 10% fetal bovine serum (FBS, Gibco), L-glutamine (2 mM, Gibco) and 100 μg/mL of penicillin/streptomycin (Gibco). All cell lines were maintained in a humidified incubator at 37 °C and 5% CO2 for no more than 30 passages. Cells were routinely tested for mycoplasma contamination.
Cell Treatment for Immunoblotting
depending on the experimental setup. Cells were treated in fresh medium with the indicated compounds under indicated conditions with a final EtOH or iPrOH concentration of 0.01% (v/v) to 0.1% (v/v) depending on the experimental setup. […]
stored at −80°C. Protein concentration was determined by bicinchoninic acid (BCA) assay (Thermo Fisher […]
Quantitative Immunoblotting […]

SMILES: Cc1ncsc1-c1ccc(CNC(=O)[C@@H]2C[C@@H](O)CN2C(=O)[C@@H](NC(=O)CCCCCOCCOCCCCCC(=O)Nc2cccc3c2C(=O)N(C2CCC(=O)NC2=O)C3=O)C(C)(C)C)cc1 (stereo partly shown) [14a]
- temperature coefficient Δδ/ΔT N(1)-H [1]: −3.52 ppb/K
- temperature coefficient Δδ/ΔT N(2)-H [1]: −1.57 ppb/K

SMILES: Cc1ncsc1-c1ccc(CNC(=O)[C@@H]2C[C@@H](O)CN2C(=O)[C@@H](NC(=O)COCCOCCOCCOCCOCCOCC(=O)N[C@H](C(=O)N2C[C@H](O)C[C@H]2C(=O)NCc2ccc(-c3scnc3C)cc2)C(C)(C)C)C(C)(C)C)cc1 [CM11]
- Dmax at 1 µM (pVHL30; HEK293, 4 h, read-out: Dmax at 1 μM (pVHL30)): 98%
- Dmax at 1 µM (pVHL30; HEK293, 24 h, read-out: maximal degradation (Dmax) of pVHL30): 100%
